According to PubChem BioAssay (NCI):
Several values for one entry are separate records, joined by “and”; a condition that tells them apart may be missing. Equal values may be shown once.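 Briefly, cells in 96-well plates were exposed to five compound concentrations for 48 h, and endpoints were estimated by linear interpolation. GI50 is the concentration that inhibits growth by half. At the TGI there is no net growth.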

Key:
Experiment in all cases: inhibition of tumour cell growth, NCI panel, 48 h
[1] = system: A498 renal
[2] = system: HS 578T breast
[3] = system: M14 melanoma
[4] = system: MDA-MB-231 breast
[5] = system: MOLT-4 leukemia
[6] = system: NCI-H23 lung
[7] = system: SF-268 CNS
[8] = system: SK-OV-3 ovarian
[9] = system: SW-620 colon
[10] = system: U251 CNS

| Compound | TGI [1] | TGI [2] | TGI [3] | TGI [4] | TGI [5] | TGI [6] | TGI [7] | TGI [8] | TGI [9] | TGI [10] | GI50 [2] | GI50 [3] | GI50 [5] | GI50 [6] | GI50 [7] | GI50 [9] | GI50 [10] |
| --- | --- | --- | --- | --- | --- | --- | --- | --- | --- | --- | --- | --- | --- | --- | --- | --- | --- |
| O=C(/C=C/c1ccc(O)c(-c2cc(C(=O)/C=C/c3ccc(O)cc3)c(O)cc2O)c1)c1ccc(O)cc1O | > 50 µM | > 50 µM | > 50 µM | > 50 µM | > 50 µM | > 50 µM | > 50 µM | 48.3 µM | > 50 µM | > 50 µM | – | – | – | – | – | – | – |
| CCCNC(=O)CCC(C)C1CCC2C3C(C[C@H](OC(C)=O)[C@]12C)[C@@]1(C)CCC2(C[C@H]1C[C@H]3OC(C)=O)OOC1(CC[C@]3(C)C4C[C@H](OC(C)=O)[C@]5(C)C(C(C)CCC(=O)NCCC)CCC5C4[C@H](OC(C)=O)C[C@@H]3C1)OO2 (stereo partly drawn) | > 100 µM | 98.2 µM | > 100 µM | > 83.4 µM | > 100 µM | > 100 µM | > 100 µM | > 100 µM | > 100 µM | > 100 µM | – | – | – | – | – | – | – |
| [N-]=[N+]=CC(=O)c1ccccc1C#CCCc1ccccc1 | > 100 µM | – | > 100 µM | – | 40.9 µM | 89.2 µM | – | 66.7 µM | > 100 µM | 88.5 µM | – | – | – | – | – | – | – |
| CC1=CC(=O)c2ccccc2C1=O | 39.1 µM | 41.4 µM | 15.8 µM | 9.87 µM | 5.15 µM | 19.4 µM | 22.2 µM | 25.7 µM | 4.82 µM | 26.4 µM | – | – | – | – | – | – | – |
| CCC1CN(C(=O)c2ccccc2)C(Cc2c[nH]c3ccccc23)C(=O)C1CC(=O)OC (stereo not drawn) | 64.3 µM | > 100 µM | > 100 µM | – | > 100 µM | > 100 µM | > 100 µM | > 100 µM | > 100 µM | > 100 µM | – | – | – | – | – | – | – |
| CCOC(=O)C1=NN(c2ccc(C)cc2)C2=CC(C)=NN(C)C(=S)N21 | – | > 100 µM | > 100 µM | > 100 µM | > 100 µM | > 100 µM | > 100 µM | > 100 µM | > 100 µM | > 100 µM | – | – | – | – | – | – | – |
| Nc1ccccc1S(=O)(=O)c1ccccc1 | > 100 µM | – | > 100 µM | – | > 100 µM | > 100 µM | > 100 µM | > 100 µM | > 100 µM | > 100 µM | – | – | – | – | – | – | – |
| Cc1c(N2C(=O)CS(=O)(=O)C2c2cccc(Oc3ccccc3)c2)c(=O)n(-c2ccccc2)n1C (stereo not drawn) | 55.9 µM | > 100 µM | > 100 µM | > 100 µM | > 100 µM | > 100 µM | > 100 µM | > 100 µM | > 100 µM | > 100 µM | – | – | – | – | – | – | – |
| O=c1[nH]nc(NNc2ccccc2)c2nnn(C3CCCCC3)c12 | – | – | > 100 µM | > 100 µM | > 100 µM | > 100 µM | – | – | – | > 100 µM | – | – | – | – | – | – | – |
| COc1nc(C#CC2(O)CCCCC2)nc(OC)n1 | 31.2 µM | 44.8 µM | 38.3 µM | 15 µM | > 100 µM | 27.1 µM | 40.7 µM | > 100 µM | 24.1 µM | 26.4 µM | – | – | – | – | – | – | – |
| COc1ccc(C(=O)c2sc(Nc3ccc(Cl)cc3)nc2N)cc1 | > 75 µM | 47.4 µM | > 100 µM | > 92.4 µM | > 71.4 µM | > 51.6 µM | 43.3 µM | 27.2 µM | > 100 µM | > 55.5 µM | – | – | – | – | – | – | – |
| CCn1c(-c2ccc(N=NNc3ccc(-c4n[nH]c(=S)n4CC)cc3)cc2)n[nH]c1=S | > 100 µM | > 100 µM | 8.2 µM | > 100 µM | 6.28 µM | 6.26 µM | 17.2 µM | 19.5 µM | > 100 µM | – | – | – | – | – | – | – | – |
| O=C(C[n+]1ccc2ccccc2c1)c1ccc2ccc3ccccc3c2c1 | 18.6 µM | 35.2 µM | 10.6 µM | 15.3 µM | 2.69 µM | 17.6 µM | 19.9 µM | 21 µM | 13.1 µM | 14.6 µM | – | – | – | – | – | – | – |
| CC(C)(C)c1cc(C2=NNC(c3ccccc3)C2)cc(C(C)(C)C)c1O (stereo not drawn) | 29.7 µM | 55.6 µM | 34.1 µM | 27.5 µM | > 100 µM | 33.7 µM | 36 µM | 38.2 µM | 34.3 µM | 28.8 µM | – | – | – | – | – | – | – |
| COc1cccc2c1Cc1cc(-c3ccccc3)[n+](C)n1-2 | > 100 µM | > 100 µM | 24.9 µM | 81.7 µM | > 100 µM | 32.4 µM | > 100 µM | > 100 µM | > 100 µM | > 100 µM | – | – | – | – | – | – | – |
| CCCCCCCCC/C=C/C=C/C(=O)NCC(=O)NC1C(O)C(O)C(Nc2ncnc3nc[nH]c23)OC1C(O)CO (stereo not drawn) | – | – | 0.143 µM and 1.22 µM | – | > 100 µM | – | 0.671 µM | 0.00892 µM | 0.112 µM | 0.0217 µM | 0.201 µM | 0.0248 µM | 0.372 µM | 0.0247 µM | 0.00558 µM | 0.00284 µM | 0.00214 µM |
| O=C(OCN1C(=O)C2C3C=CC(C2C1=O)C1C2C(=O)N(COC(=O)C4CCCN4)C(=O)C2C31)C1CCCN1 (stereo not drawn) | > 100 µM | – | > 100 µM | – | > 95.3 µM | > 100 µM | > 78.5 µM | > 100 µM | > 72.2 µM | > 67.5 µM | – | – | – | – | – | – | – |
| O=C(/C=C/c1ccccc1)NNC(=O)c1c(Cl)c(Cl)c(Cl)c(Cl)c1-c1nc2ccccc2[nH]1 | 90.9 µM | – | 83.5 µM | – | > 100 µM | 60 µM | > 100 µM | 54.9 µM | > 100 µM | – | – | – | – | – | – | – | – |
| Nc1nc(SCCc2ccccc2)nc2nc3c(c(-c4ccccc4)c12)CCCC3 | – | 64.7 µM | > 100 µM | > 100 µM | > 100 µM | > 100 µM | > 100 µM | > 100 µM | > 100 µM | > 100 µM | – | – | – | – | – | – | – |
| CC12CC3OC(=O)C1COC14OC5(C2C1=O)C(O)(CCC1C4CC(O)C2(O)CC=CC(=O)C12C)C(=O)OC35C (stereo not drawn) | – | > 100 µM | > 100 µM | > 100 µM | > 100 µM | > 100 µM | > 100 µM | > 100 µM | > 100 µM | > 100 µM | – | – | – | – | – | – | – |
